# Source: patent US20250296938A1, “Compounds that Interact with the Ras Superfamily for the Treatment of Cancers, Inflammatory Diseases, Rasopathies, and Fibrotic Disease” (SHY Therapeutics, LLC, priority 2018, published 2025)
# Read-outs that look alike come from different tables or passages of the source.
# Tests used:
# AKT phosphorylation = test: Western AKT cell-based phosphorylation assay, PANC-1; details: Homo sapiens, 6 hours, EGF stimulation, PANC-1
# Method in brief: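 PANC-1 cells, serum-starved overnight in 0.5% FBS, were treated with compound at 10 μM (0.3% DMSO) for 6 h at 37 °C and then stimulated with 1.5 ng/ml EGF for 15 min. Lysates (15–50 μg) were immunoblotted for phospho-Akt Ser473, with ECL detection.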
# MAPK phosphorylation [1] = test: MAPK cell-based phosphorylation assay (ELISA or Western), PANC-1; details: Homo sapiens; 10 μM, 6 hours, EGF stimulation, PANC-1
# Method in brief: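 Serum-starved (0.5% FBS overnight) cells given compound at 10 μM or serial dilutions (0.3% DMSO) for 6 h at 37 °C, then 1.5 ng/mL EGF for 15 min. Phospho-MAPK read by fixed-cell ELISA (fluorescence, 595 nm) or by Western blot of lysates with anti-phospho-p44/42 (Thr202/Tyr204).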
# MAPK phosphorylation [2] = test: Western MAPK cell-based phosphorylation assay, MIA PaCa-2; details: Homo sapiens, 10 μM, 6 hours, EGF stimulation
# Description: (§1) Cell lines: Human NSCLC cells NCI-H1975 and NCI-H1299, and tumor-derived pancreatic cancer cell lines Panc-1, MIA-PaCa-2, and BxPC3, were all purchased from American Type Culture Collection and grown in complete RPMI medium (BxPC3, NCI-H1975 and NCI-H1299) or DMEM-High Glucose (Panc1 and MIA-PaCa-2), supplemented with penicillin (100 U/mL), streptomycin (100 μg/mL), and 10% heat-inactivated FBS at 37° C. in a humidified incubator with 5% CO2.
# (§2) Method: Cells were plated at 350000 cells/well density in a 12-well plate, allowed 3 hours to adhere to the plate, then starved in the appropriate medium in the presence of 0.5% FBS overnight. The small molecules to be tested were added to the cells in the final concentration of 10 μM in the presence of 0.3% DMSO for 6 hours incubation at 37° C. For IC50 value determination, serial dilutions of compounds were added to cells under the same conditions. Next, cells were stimulated with 1.5 ng/ml EGF for 15 minutes then cells were lysed with lysis buffer containing 1% Triton X-100, EDTA, and Halt™ Protease & Phosphatase Inhibitor Cocktail (Thermo Scientific). Protein concentration was assessed by BCA protein assay (Thermo Scientific). Phosphorylation level of MAPK was determined by western blot.
# (§3) Western blot protocol: Equal amounts of protein (15-50 μg) were separated by SDS-PAGE and transferred to nitrocellulose membranes (Invitrogen by Thermo Fisher Scientific). The membrane was stained with Ponceau S Stain (Boston BioProducts) to verify uniform protein loading. Membranes were blocked with 10% milk and phosphorylation levels of MAPK were assessed by incubating overnight at 4° C. with anti-phospho-p44/42 (Thr202/Tyr204) antibody (Cell Signaling) followed by HRP-conjugated secondary antibody (Jackson Immunoresearch, West Grove, PA). Bands were incubated in Amersham ECL Prime Western Blotting Detection Reagent (GE Healthcare) and visualized using the ChemiDoc MP imaging system (Bio-Rad).
# MAPK phosphorylation [3] = test: Western MAPK cell-based phosphorylation assay, BxPC3; details: Homo sapiens, BXPC-3, 10 μM, 6 hours, EGF stimulation
# Description: as §1, §2, §3
# Rac-1 = Rac-1 (Homo sapiens, UniProt P63000); test: Ras GTP binding domain inhibition assay (Cy3-GTP/Cy5-GTP competition)
# Method in brief: (§4)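 Compounds tested at 20 μM or in serial dilution for IC50 against nickel-captured His-tagged GTPase, 3 hours at room temperature, with or without His-Sos GEF added for last hour. Fluorescent GTP then added at 100 nM for 45 minutes; wells washed, bound label measured by fluorescence.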
# Rho-A = Rho-A (Homo sapiens, UniProt P61586); test: as above; details: for Rho-A + SOS: % inh. / Rho-A: % inh.: at 20 μM
# Method in brief: as §4
# KRas G12D mutant = biological target: T1, KRas G12D mutant (Homo sapiens, UniProt P01116, G12D); test: as above; details: at 20 μM
# T1 construct: fused on or other part: His tag, used for capture on nickel-coated plates
# Method in brief: as §4
# HRas wild type = test: as above; set-up: species or system human; details: at 20 μM; for HRAS wild type + SOS: % inh.: with SOS; for HRas wild type % inh.: without SOS
# Method in brief: as §4
# [4] = tested on: MIA PaCa-2 pancreatic cancer cell line; test: Cell proliferation assay (DAPI); assay type: cell-based; details: Homo sapiens, MIA PaCa-2; for inhibition at 10 µM: 2-4 days, read-out: % Inhibition of cell proliferation, MIA PaCa-2 % inh
# Method in brief: (§5)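 NCI-H1975 cells in RPMI; PANC-1 and MIA PaCa-2 in DMEM-high glucose; BxPC3 in RPMI; all with 10% FBS. Compounds at 10 µM final (or serial dilutions for IC50), 0.3% DMSO, 2–4 days at 37 °C. Fixed, DAPI-stained, fluorescence read at 358/461 nm to give proliferation inhibition.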
# [5] = tested on: NCI H1975 non-small-cell lung cancer cell line; test: Cell proliferation assay (DAPI); assay type: cell-based; details: Homo sapiens
# Method in brief: as §5
# [6] = tested on: PANC-1 pancreatic cancer cell line; test: Cell proliferation assay (DAPI); assay type: cell-based; details: Homo sapiens
# Method in brief: as §5
# [7] = with SOS, read-out: Rac-1 + SOS: % inh.
# [8] = without SOS, read-out: Rac-1: % inh.
# [9] = with SOS, read-out: Rho-A + SOS: % inh.
# [10] = without SOS, read-out: Rho-A: % inh.
# [11] = with SOS, read-out: KRas G12D mutant + SOS: % inh.
# [12] = without SOS, read-out: KRas G12D mutant: % inh.
inhibition at 20 µM (Rac-1; [7]),inhibition at 20 µM (Rac-1; [8]),inhibition at 20 µM (Rho-A; [9]),inhibition at 20 µM (Rho-A; [10]),inhibition at 20 µM (KRas G12D mutant; [11]),inhibition at 20 µM (KRas G12D mutant; [12]),HRAS wild type + SOS: % inh. (HRas wild type),HRas wild type % inh. (HRas wild type),SMILES,also measured
,,,,,,,,COCC(C)Nc1nc(-c2nccn2C)nc2sc(-c3cccc(OC)c3)c(-c3cscn3)c12 (centres unmarked) [drawing 416],inhibition at 10 µM (AKT phosphorylation): 0%; inhibition at 10 µM (MAPK phosphorylation [1]): 76 to 100%; inhibition at 10 µM (MAPK phosphorylation [2]): 26 to 50%; inhibition at 10 µM (MAPK phosphorylation [3]): 76 to 100%
51 to 75%,51 to 75%,1 to 25%,26 to 50%,26 to 50%,26 to 50%,D (76-100% inhibition),B (26-50% inhibition),COC1CCC(Nc2nc(-c3nccn3C)nc3sc(-c4cccc5[nH]ncc45)c(-c4ccccc4)c23)C1 (centres unmarked) [drawing 1023],
,,,,,,,,COCCNc1nc(-c2nccn2C)nc2sc(-c3ccccc3Cl)c(-c3ccc(OC)cc3)c12 [drawing 560],IC50 [4]: > 1000 nM; inhibition at 10 µM [4]: 76 to 100%; IC50 [5]: 750 to 1000 nM
1 to 25%,1 to 25%,1 to 25%,26 to 50%,0%,0%,A (1-25% inhibition),C (51-75% inhibition),Cn1ccc(-c2sc3nc(-c4nccn4C)nc(N[C@@H]4CC[C@H](O)C4)c3c2C2=CC=CCC=C2)n1 (racemic),
76 to 100%,76 to 100%,51 to 75%,76 to 100%,51 to 75%,51 to 75%,D (76-100% inhibition),C (51-75% inhibition),CO[C@H]1C[C@@H](Nc2nc(-c3ccccn3)nc3sccc23)C1 [drawing 1037],
,,,,,,,,COCCNc1nc(-c2cn(C)cn2)nc2sc(-c3ccccc3Cl)c(-c3ccc(OC)cc3)c12 [drawing 564],IC50 [4]: > 1000 nM; inhibition at 10 µM [4]: 76 to 100%; IC50 [5]: > 1000 nM
76 to 100%,51 to 75%,51 to 75%,51 to 75%,51 to 75%,26 to 50%,D (76-100% inhibition),B (26-50% inhibition),CO[C@H]1C[C@@H](Nc2nc(-c3nccn3C)nc3sc(-c4ccn(C)n4)c(-c4ccccc4)c23)C1.Cl [drawing 1040],
,,,,,,,,COCCNc1nc(-c2nccn2C)nc2sc(-c3cc(OC)ccc3Cl)c(-c3ccccc3)c12 [drawing 426],inhibition at 10 µM (MAPK phosphorylation [1]): 51 to 75%; inhibition at 10 µM (MAPK phosphorylation [2]): 76 to 100%; inhibition at 10 µM (MAPK phosphorylation [3]): 26 to 50%
51 to 75%,51 to 75%,51 to 75%,51 to 75%,51 to 75%,26 to 50%,D (76-100% inhibition),B (26-50% inhibition),CO[C@H]1C[C@H](Nc2nc(-c3nccn3C)nc3sc(-c4ccn(C)n4)c(-c4ccccc4)c23)C1 [drawing 1041],
,,,,,,,,COCC(C)Nc1nc(-c2nccn2C)nc2sc(-c3ccccc3Cl)c(-c3cscn3)c12 (centres unmarked) [drawing 414],inhibition at 10 µM (AKT phosphorylation): 0%; inhibition at 10 µM (MAPK phosphorylation [1]): 76 to 100%; inhibition at 10 µM (MAPK phosphorylation [2]): 76 to 100%; inhibition at 10 µM (MAPK phosphorylation [3]): 26 to 50%
,,,,,,,,COCCNc1nc(-c2nccn2C)nc2sc(-c3cccc(OC)c3Cl)c(-c3ccccc3)c12 [drawing 567],IC50 [4]: 750 to 1000 nM; inhibition at 10 µM [4]: 76 to 100%; IC50 [6]: 750 to 1000 nM; IC50 [5]: 750 to 1000 nM
,,,,,,,,COCCNc1nc(-c2nccn2C)nc2sc(-c3cc(OC)ccc3Cl)c(-c3ccc(OC)cc3)c12 [drawing 421],inhibition at 10 µM (AKT phosphorylation): 0%; inhibition at 10 µM (MAPK phosphorylation [1]): 51 to 75%; inhibition at 10 µM (MAPK phosphorylation [2]): 0%; inhibition at 10 µM (MAPK phosphorylation [3]): 0%
,,,,,,D (76-100% inhibition),B (26-50% inhibition),COc1cccc(-c2sc3nc(-c4nccn4C)nc(NC4CCC(OC)C4)c3c2-c2ccccc2)c1F (centres unmarked) [drawing 1020],"Rac-1 + SOS: % inh. (Rac-1; at 20 μM, with SOS): B (26-50% inhibition); Rac-1: % inh. (Rac-1; at 20 μM, without SOS): C (51-75% inhibition); Rho-A + SOS: % inh. (Rho-A; with SOS): A (1-25% inhibition); Rho-A: % inh. (Rho-A; without SOS): A (1-25% inhibition); KRas G12D mutant + SOS: % inh. (KRas G12D mutant; with SOS): C (51-75% inhibition); KRas G12D mutant: % inh. (KRas G12D mutant; without SOS): B (26-50% inhibition)"
51 to 75%,51 to 75%,76 to 100%,76 to 100%,51 to 75%,51 to 75%,D (76-100% inhibition),C (51-75% inhibition),CO[C@H]1CC[C@@H](Nc2nc(-c3nccn3C)nc3sc(-c4ccn(C(C)C)n4)c(C)c23)C1 [drawing 1054],
1 to 25%,1 to 25%,26 to 50%,26 to 50%,0%,0%,A (1-25% inhibition),C (51-75% inhibition),Cn1ccc(-c2sc3nc(-c4nccn4C)nc(N[C@H]4C[C@@H](O)C4)c3c2-c2ccccc2)n1 [drawing 1043],
,,,,,,,,COCCNc1nc(-c2nccn2C)nc2sc(-c3cccc(OC)c3)c(-c3ccc(OC)cc3)c12 [drawing 561],IC50 [4]: > 1000 nM; inhibition at 10 µM [4]: 76 to 100%; IC50 [5]: > 1000 nM
,51 to 75%,,,51 to 75%,26 to 50%,D (76-100% inhibition),D (76-100% inhibition),COc1cccc(-c2sc3nc(-c4nccn4C)nc(NC4CCC(OC)C4)c3c2-c2ccccc2)c1F (centres unmarked) [drawing 1018],"Rac-1 + SOS: % inh. (Rac-1; at 20 μM, with SOS): C (51-75% inhibition); Rho-A + SOS: % inh. (Rho-A; with SOS): C (51-75% inhibition); Rho-A: % inh. (Rho-A; without SOS): C (51-75% inhibition)"
76 to 100%,76 to 100%,26 to 50%,76 to 100%,76 to 100%,76 to 100%,D (76-100% inhibition),C (51-75% inhibition),CO[C@H]1C[C@@H](Nc2nc(-c3nccn3C)nc3sccc23)C1 [drawing 1038],
51 to 75%,51 to 75%,51 to 75%,51 to 75%,51 to 75%,26 to 50%,D (76-100% inhibition),B (26-50% inhibition),CN(C)CCOCCNc1nc(-c2nccn2C)nc2sc(-c3ccn(C)n3)c(-c3ccccc3)c12 [drawing 1042],
